Experimental findings from ChEMBL document CHEMBL1151570, “Preparation and Properties of a fibrinogen receptor antagonist containing the Arg-Gly-Asp sequence and nitroxide radicals” (Bioorg Med Chem Lett, 1993) are described below.

Assay [1] deals with Integrin alpha-IIb/beta-3 (Homo sapiens, UniProt P05106+P08514). The assay is described as follows: Dissociation constant for platelet glycoprotein alphaIIb-beta3 integrin from human platelets.
The species named for the next assay is Homo sapiens. The assay is described as follows: Compound was evaluated for in vitro inhibition of ADP-induced aggregation of human platelet rich plasma. The format is functional.

Sequence of Integrin alpha-IIb/beta-3 (P05106 27-788 limits assumed): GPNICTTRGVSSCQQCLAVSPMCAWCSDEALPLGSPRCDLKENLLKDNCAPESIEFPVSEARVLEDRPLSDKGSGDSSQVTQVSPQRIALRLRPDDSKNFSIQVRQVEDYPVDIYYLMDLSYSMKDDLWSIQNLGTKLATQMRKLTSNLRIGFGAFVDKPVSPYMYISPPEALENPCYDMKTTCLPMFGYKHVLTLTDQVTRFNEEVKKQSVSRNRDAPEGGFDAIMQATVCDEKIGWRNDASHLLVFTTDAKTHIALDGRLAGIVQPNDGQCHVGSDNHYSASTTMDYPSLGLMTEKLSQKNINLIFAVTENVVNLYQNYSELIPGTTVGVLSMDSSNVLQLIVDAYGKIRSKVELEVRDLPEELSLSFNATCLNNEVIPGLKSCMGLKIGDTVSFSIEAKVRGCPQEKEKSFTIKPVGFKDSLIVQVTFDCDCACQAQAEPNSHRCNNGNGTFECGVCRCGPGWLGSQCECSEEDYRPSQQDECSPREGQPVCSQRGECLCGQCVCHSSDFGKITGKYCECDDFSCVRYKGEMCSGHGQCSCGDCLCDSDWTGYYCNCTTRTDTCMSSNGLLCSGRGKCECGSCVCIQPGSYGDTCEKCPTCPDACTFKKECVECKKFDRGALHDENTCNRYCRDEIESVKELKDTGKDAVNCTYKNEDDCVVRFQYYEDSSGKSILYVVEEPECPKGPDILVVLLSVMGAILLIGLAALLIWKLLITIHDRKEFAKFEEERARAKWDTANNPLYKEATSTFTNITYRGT
Sequence of Integrin alpha-IIb/beta-3 (P08514 32-887 limits assumed): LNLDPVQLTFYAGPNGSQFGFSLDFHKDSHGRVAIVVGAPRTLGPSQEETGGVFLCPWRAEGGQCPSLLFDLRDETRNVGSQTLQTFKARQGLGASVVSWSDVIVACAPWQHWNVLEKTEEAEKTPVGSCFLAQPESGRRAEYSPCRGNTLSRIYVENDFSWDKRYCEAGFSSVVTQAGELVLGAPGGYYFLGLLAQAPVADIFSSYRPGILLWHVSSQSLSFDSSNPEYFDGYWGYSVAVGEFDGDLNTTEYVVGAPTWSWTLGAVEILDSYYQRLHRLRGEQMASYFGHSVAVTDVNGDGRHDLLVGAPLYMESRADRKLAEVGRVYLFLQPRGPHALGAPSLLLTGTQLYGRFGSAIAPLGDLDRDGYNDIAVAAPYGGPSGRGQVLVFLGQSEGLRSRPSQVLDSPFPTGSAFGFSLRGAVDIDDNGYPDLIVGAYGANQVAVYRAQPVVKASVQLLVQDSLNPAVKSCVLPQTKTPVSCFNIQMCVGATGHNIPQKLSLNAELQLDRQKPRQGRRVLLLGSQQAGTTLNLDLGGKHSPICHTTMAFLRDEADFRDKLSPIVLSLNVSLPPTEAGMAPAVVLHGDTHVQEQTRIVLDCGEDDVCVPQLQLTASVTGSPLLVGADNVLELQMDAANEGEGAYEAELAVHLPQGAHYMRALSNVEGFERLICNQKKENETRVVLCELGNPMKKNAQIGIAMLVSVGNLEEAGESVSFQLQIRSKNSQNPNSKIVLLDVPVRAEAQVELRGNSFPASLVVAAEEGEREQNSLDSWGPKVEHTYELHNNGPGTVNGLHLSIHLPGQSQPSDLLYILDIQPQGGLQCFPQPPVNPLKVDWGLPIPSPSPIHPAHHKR
Sequence of Integrin alpha-IIb/beta-3 (P08514 891-1039 limits assumed): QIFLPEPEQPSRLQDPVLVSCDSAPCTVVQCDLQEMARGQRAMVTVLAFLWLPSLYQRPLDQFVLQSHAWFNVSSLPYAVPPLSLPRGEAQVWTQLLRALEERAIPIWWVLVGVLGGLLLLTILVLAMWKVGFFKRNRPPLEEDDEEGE

With `CN(C(=O)c1ccccc1SCC(=O)NC1CC(C)(C)N([O])C(C)(C)C1)[C@@H](CCCN=C(N)N)C(=O)NCC(=O)N[C@@H](C(=O)O)C(=O)Nc1ccccc1SCC(=O)NC1CC(C)(C)N([O])C(C)(C)C1`, the Ki in assay [1] amounted to 0.11 µM. Besides, the IC50 in the assay filed under Homo sapiens is 1.02 µM.

`CC1(C)CC(NC(=O)CBr)CC(C)(C)N1[O]` displayed a Ki in assay [1] of over 1000 µM. The molecule also came in with an IC50 in the assay filed under Homo sapiens of over 200 µM.
